According to US20060069132A1, “Azolecarboxamide herbicides” (priority 2004, published 2006):

Assays:
common ragweed = experiment: Test C pre-/postemergence herbicide test; format: in vivo, Ambrosia elatior; parameters: key to Plant response rating, Ragweed: 0 = no effect, 100 = complete control; conditions: for Ragweed plant response rating: Preemergence, scale 0 to 100, 0 no effect, 100 complete control
How it was run: (§1)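 Preemergence: seeds planted and treated with compound in non-phytotoxic solvent with surfactant; postemergence: plants at 2 to 18 cm (1- to 4-leaf stage) sprayed likewise. Kept in greenhouse 12 to 14 days, then visually rated against controls, 0 (no effect) to 100 (complete control).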

pigweed = experiment: Test C pre-/postemergence herbicide test; format: in vivo, Amaranthus retroflexus; conditions: for Pigweed plant response rating: Preemergence, scale 0 to 100, 0 no effect, 100 complete control
How it was run: as §1

eastern black nightshade = experiment: Test C pre-/postemergence herbicide test; format: in vivo, Solanum ptycanthum; conditions: for Nightshade plant response rating: Preemergence, scale 0 to 100, 0 no effect, 100 complete control
How it was run: as §1

rice [1] = experiment: Test B pre-/postemergence herbicide test; format: in vivo, Oryza sativa; conditions: for Rice plant response rating (0 to 100 scale) / Plant response rating, Rice: preemergence
How it was run: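 Test chemicals in a non-phytotoxic solvent mixture with surfactant were applied preemergence to seeded species and postemergence to plants 2-18 cm tall (1- to 4-leaf stage); rice and barnyardgrass were also tested in a flooded paddy at the 2-leaf stage. Visual rating versus controls after 13-15 days in greenhouse, scale 0 (no effect) to 100 (complete control).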

large crabgrass = experiment: Test C pre-/postemergence herbicide test; format: in vivo, Digitaria sanguinalis; conditions: for Crabgrass, Large plant response rating: Preemergence, scale 0 to 100, 0 no effect, 100 complete control
How it was run: as §1

Surinam grass = experiment: Test C pre-/postemergence herbicide test; format: in vivo, Urochloa decumbens; conditions: for Surinam Grass plant response rating: Preemergence, scale 0 to 100, 0 no effect, 100 complete control
How it was run: as §1

ducksalad = experiment: Test C flooded paddy test; format: in vivo, Heteranthera limosa; conditions: for Plant response rating, Ducksalad: 500 g ai/ha, visual rating after 12 to 14 days
rice [2] = experiment: Test C flooded paddy test; format: in vivo, Oryza sativa; conditions: for Plant response rating, Rice: 500 g ai/ha, visual rating after 12 to 14 days
How it was run: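 Postemergence sprays applied to plants 2 to 18 cm tall (1- to 4-leaf stage); paddy species grown to 2-leaf stage under flooding. After 12 to 14 days in greenhouse, visual rating versus untreated controls on 0–100 scale (0 no effect, 100 complete control).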

[3] = 62 g ai/ha, preemergence, scale 0 to 100
[4] = 250 g ai/ha, scale 0-100, preemergence
[5] = 500 g ai/ha, scale 0 to 100 (0 no effect, 100 complete control), visual, 12 to 14 days, preemergence
[6] = 125 g ai/ha, scale 0 (no effect) to 100 (complete control), visual, 12 to 14 days, preemergence
[7] = 125 g ai/ha, 0 = no effect, 100 = complete control
[8] = 500 g ai/ha, visual rating, 0 = no effect, 100 = complete control
[9] = 125 g ai/ha, scale 0 to 100 (0 no effect, 100 complete control)
[10] = 250 g ai/ha, scale of 0 to 100, 0 is no effect, 100 is complete control
[11] = scale 0 to 100 (0 no effect, 100 complete control)
[12] = 250 g ai/ha, scale 0 to 100 (0 no effect, 100 complete control), visual, 12 to 14 days, preemergence
[13] = 125 g ai/ha, 0 to 100 scale, 0 is no effect, 100 is complete control
[14] = 62 g ai/ha, scale 0 to 100 (0 no effect, 100 complete control)
[15] = 125 g ai/ha, scale of 0 to 100, 0 is no effect, 100 is complete control

CCN(C)C(=O)c1ccc(F)c(NC(=O)C2CC(C(C)(C)C)=NN2CC)c1 (racemic) [Compound 307] was tested, and the “Plant response rating, Ragweed” value (common ragweed; [3]) was 80, the “Plant response rating, Ragweed” value (common ragweed; [4]) was 100 and the “Plant response rating, Ragweed” value (common ragweed; [5]) was 100. The “Plant response rating, Pigweed” value (pigweed; [3]) was 100, the “Plant response rating, Pigweed” value (pigweed; [6]) was 100 and the “Plant response rating, Pigweed” value (pigweed; [4]) was 100. The “Plant response rating, Pigweed” value (pigweed; [5]) was 100, the “Plant response rating, Nightshade” value (eastern black nightshade; [3]) was 100 and the “Plant response rating, Nightshade” value (eastern black nightshade; [6]) was 100. The “Plant response rating, Nightshade” value (eastern black nightshade; [4]) was 100, the “Plant response rating, Nightshade” value (eastern black nightshade; [5]) was 100 and the “Rice plant response rating (0 to 100 scale)” value (rice [1]; [7]) was 80. For the same compound, the “Plant response rating, Rice” value (rice [1]; [8]) was 90, the “Plant response rating, Crabgrass, Large” value (large crabgrass; [3]) was 80 and the “Plant response rating, Crabgrass, Large” value (large crabgrass; [6]) was 100. The “Plant response rating, Crabgrass, Large” value (large crabgrass; [4]) was 100, the “Plant response rating, Crabgrass, Large” value (large crabgrass; [5]) was 100 and the “Plant response rating, Surinam Grass” value (Surinam grass; [3]) was 70. For the same compound, the “Plant response rating, Surinam Grass” value (Surinam grass; [4]) was 90, the “Plant response rating, Surinam Grass” value (Surinam grass; [5]) was 90 and the “Ducksalad plant response rating” value (ducksalad; 62 g ai/ha, scale 0 to 100) was 60. The “Ducksalad plant response rating” value (ducksalad; [9]) was 70, the “Ducksalad plant response rating” value (ducksalad; [10]) was 90 and the “Plant response rating, Ducksalad” value (ducksalad; [11]) was 90. The “Rice plant response rating” value (rice [2]; 62 g ai/ha, scale 0 to 100) was 55, the “Rice plant response rating” value (rice [2]; [9]) was 60 and the “Rice plant response rating” value (rice [2]; [10]) was 65. The “Plant response rating, Rice” value (rice [2]; [11]) was 80.

With CCN(C)C(=O)c1cccc(NC(=O)c2cc(C(C)(C)C)nn2CC)c1 [Compound 48] the “Plant response rating (0 = no effect, 100 = complete control), Ragweed” value (common ragweed; 62 g ai/ha, preemergence) was 0, the “Plant response rating, Ragweed” value (common ragweed; [6]) was 5 and the “Plant response rating, Ragweed” value (common ragweed; [12]) was 70. For the same compound, the “Ragweed plant response rating” value (common ragweed; 500 g ai/ha) was 100, the “Plant response rating (0 = no effect, 100 = complete control), Pigweed” value (pigweed; 62 g ai/ha, preemergence) was 100 and the “Plant response rating, Pigweed” value (pigweed; [6]) was 100. The “Plant response rating, Pigweed” value (pigweed; [12]) was 100, the “Pigweed plant response rating” value (pigweed; 500 g ai/ha) was 100 and the “Plant response rating (0 = no effect, 100 = complete control), Nightshade” value (eastern black nightshade; 62 g ai/ha, preemergence) was 50. The “Plant response rating, Nightshade” value (eastern black nightshade; [6]) was 80, the “Plant response rating, Nightshade” value (eastern black nightshade; [12]) was 95 and the “Nightshade plant response rating” value (eastern black nightshade; 500 g ai/ha) was 100. For the same compound, the “Rice plant response rating” value (rice [1]; Preemergence, 500 g ai/ha, scale 0 to 100) was 60, the “Plant response rating, Rice” value (rice [1]; [13]) was 10 and the “Plant response rating (0 = no effect, 100 = complete control), Crabgrass, Large” value (large crabgrass; 62 g ai/ha, preemergence) was 0. For the same compound, the “Plant response rating, Crabgrass, Large” value (large crabgrass; [6]) was 30, the “Plant response rating, Crabgrass, Large” value (large crabgrass; [12]) was 70 and the “Crabgrass, Large plant response rating” value (large crabgrass; 500 g ai/ha) was 90. The “Plant response rating (0 = no effect, 100 = complete control), Surinam Grass” value (Surinam grass; 62 g ai/ha, preemergence) was 0, the “Plant response rating, Surinam Grass” value (Surinam grass; [6]) was 5 and the “Plant response rating, Surinam Grass” value (Surinam grass; [12]) was 30. For the same compound, the “Surinam Grass plant response rating” value (Surinam grass; 500 g ai/ha) was 60, the “Ducksalad plant response rating” value (ducksalad; 16 g ai/ha, scale 0 to 100) was 0 and the “Ducksalad plant response rating” value (ducksalad; 31 g ai/ha, scale 0 to 100) was 0. The “Ducksalad plant response rating” value (ducksalad; [14]) was 20, the “Ducksalad plant response rating” value (ducksalad; [15]) was 40 and the “Rice plant response rating” value (rice [2]; 16 g ai/ha, scale 0 to 100) was 0. For the same compound, the “Rice plant response rating” value (rice [2]; 31 g ai/ha, scale 0 to 100) was 0, the “Rice plant response rating” value (rice [2]; [14]) was 0 and the “Rice plant response rating” value (rice [2]; [15]) was 20.

In the case of CCn1nc(C(C)(C)C)cc1C(=O)Nc1cccc(C(N)=O)n1 [Compound 162, 6-[[[3-(1,1-dimethylethyl)-1-ethyl-1H-pyrazol-5-yl]carbonyl]amino]-2-pyridinecarboxamide], the “Plant response rating, Ragweed” value (common ragweed; [3]) is reported as 95, the “Plant response rating, Ragweed” value (common ragweed; [6]) is reported as 95 and the “Ragweed plant response rating” value (common ragweed; 500 g ai/ha) is reported as 100. For the same compound, the “Plant response rating, Pigweed” value (pigweed; [3]) was 100, the “Plant response rating, Pigweed” value (pigweed; [6]) was 100 and the “Pigweed plant response rating” value (pigweed; 500 g ai/ha) was 100. The “Plant response rating, Nightshade” value (eastern black nightshade; [3]) was 80, the “Plant response rating, Nightshade” value (eastern black nightshade; [6]) was 100 and the “Nightshade plant response rating” value (eastern black nightshade; 500 g ai/ha) was 100. For the same compound, the “Plant response rating, Rice” value (rice [1]; 500 g ai/ha, visual rating 0-100, 0 no effect, 100 complete control) was 90, the “Plant response rating, Rice” value (rice [1]; [13]) was 90 and the “Plant response rating, Crabgrass, Large” value (large crabgrass; [3]) was 35. The “Plant response rating, Crabgrass, Large” value (large crabgrass; [6]) was 40, the “Plant response rating, Crabgrass, Large” value (large crabgrass; [12]) was 80 and the “Crabgrass, Large plant response rating” value (large crabgrass; 500 g ai/ha) was 100. The “Plant response rating, Surinam Grass” value (Surinam grass; [3]) was 0, the “Plant response rating, Surinam Grass” value (Surinam grass; [6]) was 75 and the “Surinam Grass plant response rating” value (Surinam grass; 500 g ai/ha) was 95. For the same compound, the “Ducksalad plant response rating” value (ducksalad; [14]) was 70, the “Ducksalad plant response rating” value (ducksalad; [9]) was 85 and the “Ducksalad plant response rating” value (ducksalad; [10]) was 95. The “Plant response rating, Ducksalad” value (ducksalad; [11]) was 100, the “Rice plant response rating” value (rice [2]; [14]) was 55 and the “Rice plant response rating” value (rice [2]; [9]) was 60. The “Rice plant response rating” value (rice [2]; [10]) was 70 and the “Plant response rating, Rice” value (rice [2]; [11]) was 75.

With CCc1nn(C(C)(C)C)cc1C(=O)Nc1cc(C(=O)N(C)C)ccn1 [Compound 293] the “Plant response rating, Ragweed” value (common ragweed; [3]) was 85, the “Plant response rating, Ragweed” value (common ragweed; [4]) was 100 and the “Plant response rating, Ragweed” value (common ragweed; [5]) was 100. The “Plant response rating, Pigweed” value (pigweed; [3]) was 20, the “Plant response rating, Pigweed” value (pigweed; [6]) was 85 and the “Plant response rating, Pigweed” value (pigweed; [4]) was 95. For the same compound, the “Plant response rating, Pigweed” value (pigweed; [5]) was 100, the “Plant response rating, Nightshade” value (eastern black nightshade; [3]) was 65 and the “Plant response rating, Nightshade” value (eastern black nightshade; [6]) was 100. The “Plant response rating, Nightshade” value (eastern black nightshade; [4]) was 100, the “Plant response rating, Nightshade” value (eastern black nightshade; [5]) was 100 and the “Rice plant response rating (0 to 100 scale)” value (rice [1]; [7]) was 90. The “Plant response rating, Rice” value (rice [1]; [8]) was 100, the “Plant response rating, Crabgrass, Large” value (large crabgrass; [3]) was 95 and the “Plant response rating, Crabgrass, Large” value (large crabgrass; [6]) was 95. For the same compound, the “Plant response rating, Crabgrass, Large” value (large crabgrass; [4]) was 100, the “Plant response rating, Crabgrass, Large” value (large crabgrass; [5]) was 100 and the “Plant response rating, Surinam Grass” value (Surinam grass; [4]) was 100. The “Plant response rating, Surinam Grass” value (Surinam grass; [5]) was 100, the “Ducksalad plant response rating” value (ducksalad; 62 g ai/ha, scale 0 to 100) was 0 and the “Ducksalad plant response rating” value (ducksalad; [9]) was 65. The “Ducksalad plant response rating” value (ducksalad; [10]) was 80, the “Plant response rating, Ducksalad” value (ducksalad; [11]) was 95 and the “Rice plant response rating” value (rice [2]; 62 g ai/ha, scale 0 to 100) was 0. For the same compound, the “Rice plant response rating” value (rice [2]; [9]) was 30, the “Rice plant response rating” value (rice [2]; [10]) was 65 and the “Plant response rating, Rice” value (rice [2]; [11]) was 80.
